Counter-ions that a name gives are not always drawn.
Key:
[1] = system: AcylCoA:Cholesterol Acyltransferase (ACAT); test: AcylCoA:Cholesterol Acyltransferase (ACAT) inhibition Assay; format: cell-based; parameters: key: compounds which inhibit ACAT activity equal to, or greater than, that of chlorpromazine are considered "active"; conditions: active = equal to or greater than chlorpromazine; Fu5AH cells preferred
Description: ACAT esterifies arterial cholesterol which is a key reaction in the development of atherosclerosis. The procedure of Bell, Can. J. Blochem. 60. […] In the ACAT assay it is preferred to use Fu5AH cells, see Lipids 9, 526 (1974). According to this procedure, compounds which inhibit ACAT activity equal to, or greater than, that of chlorpromazine are considered "active".

[2] = system: serum and arterial cholesterol; test: Antiatherosclerosis screen in Susceptible to Experimental Atherosclerosis (SEA) Japanese Quail; format: in vivo; conditions: SEA Japanese quail fed atherogenic diet; active = decrease >30 %
Protocol: While not necessary, some minor modifications for extraction of cholesterol from the artery have been made. These are as follows: frozen arteries are homogenized in hexane/isopropanol (3/2) and the volume adjusted with Triton 100 solution (1.5% in hexane/isopropanol) to 7 ml. After standing 12 hr at 20°-25°, the supernatant, obtained by low speed centrifugation is evaporated until dry and then the residue is suspended in 0.5 ml of 5% Triton 100 in isopropanol. This suspension is incubated for 10 min at 45° to dissolve the material. This solution as well as the diluted serum samples are analyzed for cholesterol by standard clinical chemistry analyzer methods. According to the above procedure compounds which decrease serum or arterial cholesterol >30 % are considered to be "active".
Compounds which reduce serum and arterial cholesterol and are useful in treating atherosclerosis and its complications; for example, reduction of serum cholesterol by drugs reduces the incidence of coronary heart disease JAMA 251, 351 (1984) and JAMA 251, 365 (1984).

aspirin induced ulcer = test: aspirin/cold induced ulcer assay of Rainsford; format: in vivo; conditions: active = 50% or more reduction of ulcer index
interleukin-1 = test: inhibition of interleukin-1 induced T cell proliferation assay; format: cell-based; conditions: interleukin-1; 10^-6 M
Description: The inhibition of interleukin-1 induced T cell proliferation assay, Proc. Nat. […] Since people with arthritis make excess interleukin 1, compounds which inhibit the activity of interleukin 1 are useful in the treatment of arthritis. According to this procedure compounds which inhibit the activity of interleukin 1 greater that 30% at 10^-6 M are considered to be "active".

[3] = system: induced mucous secretions; test: inhibition of mucous secretion assay of Johnson; conditions: inhibit or block enhancement of induced mucous secretions
Description: The inhibition of mucous secretion assay of Johnson Int. […] According to this procedure compounds which inhibit or block enhancement of induced mucous secretions when tested are considered to be "active".

angiogenesis = test: fertile egg or chick embryo assay of Folkman (inhibition of angiogenesis / tumor growth); format: in vivo; conditions: chick embryo; 50 μg/10 μl in the presence of heparin
Protocol: According to this procedure compounds which are considered to be "active" (i.e, antiangiogenic) give an avascular zone of 4 mm or greater in some embryos when tested at 50 μg/10 μl in the presence of 50 μg/10 μ of heparin.

arachidonic acid = test: Arachidonic Acid Antagonism Assay (AAAA); format: in vivo, mouse (Charles River male CF-1); conditions: mice; IV, 15 min before sodium arachidonate; outside 95% confidence interval of control LD50
Summary of the method: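 Male CF-1 mice ([…]) received compound IV in 1.0% Tween-80/0.1% HCl in water. LD50 was determined by Spearman-Karber (log dose interval 0.05, N-6); an LD50 raised outside the control 95% confidence interval counted as active.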

mouse head injury = test: in vivo mouse head injury procedure of Hall, grip test; conditions: statistically significant (p<0.05)

| SMILES | inhibition of ACAT [1] | % Inhibition at 10^-6 M (interleukin-1) | inhibition of mucous secretion [3] | % Increase in 1 hr Post-Injury Grip Test Scores After 3 mg/kg (mouse head injury) | other results |
| --- | --- | --- | --- | --- | --- |
| C[C@]12CCC(=O)C=C1CC[C@@H]1C2=CC[C@@]2(C)[C@H]1CC[C@]2(O)C(=O)CN1CCN(c2ccccn2)CC1.Cl [Example 3, 17α-Hydroxy-21-[4-(2-pyridinyl) 1 piperazinyl]pregna-4,9(11)-diene-3,20dione hydrogen chloride salt] | active |  |  |  | reduction of arterial cholesterol [2]: demonstrates reduction of serum and arterial cholesterol; reduction of serum cholesterol [2]: demonstrates reduction of serum and arterial cholesterol |
| CCN(CC)c1cc(N2CCN(CC(=O)[C@@]3(O)CC[C@H]4[C@@H]5CCC6=CC(=O)CC[C@]6(C)C5=CC[C@@]43C)CC2)nc(N(CC)CC)n1 [Example 16, 17α-Hydroxy-21-[4-[2,6-bis(diethylamino)pyrimidinyl]-1-piperazinyl]pregna4,9(11)-diene-3,20-dione dihydro-chloridehydrate] |  | 84% | demonstrate such activity |  | anti-ulcer activity (aspirin induced ulcer): demonstrates anti-ulcer activity; % of Embryos with 4 mm or Greater A vascular Zone (angiogenesis): 91% |
| CCN(CC)c1cc(N2CCN(CC(=O)[C@@]3(O)[C@H](C)C[C@H]4[C@@H]5CCC6=CC(=O)C=C[C@]6(C)C5=CC[C@@]43C)CC2)nc(N(CC)CC)n1.Cl.O [Example 18, 21-[4-[2,6-Bis(diethylamino)-4-pyrimidinyl]-1-piperazinyl]-17α-hydroxy-16α-methylpregna-1,4,9(11)-triene-3,20-dione hydrochloride hydrate] | active |  | demonstrate such activity |  |  |
| C[C@]12CCC(=O)C=C1CC[C@@H]1C2=CC[C@@]2(C)[C@H]1CC[C@]2(O)C(=O)CN1CCOCC1 [Example 93, 17α-hydroxy-21-(4-morpholino)-pregna-4,9(11)-diene-3,20-dione(E)-2-butanedioate (1:1) salt] |  | 62% |  | 134.5% | arachidonic acid antagonism (elevation of LD50 of arachidonic acid) (arachidonic acid): demonstrate arachidonic acid antagonism |
| CCNc1cccc(N2CCN(CC(=O)[C@H]3[C@H](C)C[C@H]4[C@@H]5CCC6=CC(=O)C=C[C@]6(C)C5=CC[C@@]43C)CC2)n1 [Example 127, 21-[4-[6-(Ethylamino)-2-pyridinyl]piperazinyl]-16α-methylpregna-1,4,9(11)-triene-3,20-dione hydrochloride] |  |  |  | 200.8% |  |

Source: patent publication USRE35053E, “Amines useful in producing pharmaceutically active CNS compounds” (The Upjohn Company, priority 1992, dated 1995)
